Data on two molecules can be found in US7842683B2, “Neurotherapeutic compositions and method” (Revaax Pharmaceuticals, LLC, priority 1999, dated 2010).

The structures appear in SMILES notation.

One data set deals with Male Wistar rats. Briefly: Elevated plus-maze (anxiolytic activity). The class given is in vivo, rat. The conditions noted are these: 1 mM, 2 ul into lateral ventricle, 60 min. The text has this: The elevated plus-maze was developed for the detection of anxiolytic and anxiogenic drug effects in the rat (Pellow et al., 1985). The method has been validated behaviorally, physiologically, and pharmacologically. The plus-maze consists of two open arms and two enclosed arms. […] Conversely, anxiogenic compounds like yohimbin or amphetamines reduce open arm entries and time spent in the open arms.
Male Wistar rats weighing 250-300 g were group housed in a normal 12:12 light-dark cycle light on at 0800 hr and provide food and water ad libitum. The plus-maze consisted of two open arms, 50×10 cm, and two enclosed arms 50×10×40 cm with an open roof, arranged such that the two open arms were opposite to each other. The maze was elevated to a height of 50 cm.
Eight animals were tested in the plus-maze 90 min following IP injection with 50 μg/kg Mox and saline vehicle. The order of treatments was counter balanced with at least 48 hrs between injections. At the start of the experiment the animal was place in the center of the plus maze facing the closed arm. Over a five min observation period, animals were scored for the latency to enter the closed arm, time spent in the closed arm and the number of open arm entries following the first occupation of the closed arm (FIG. 7).
Because Mox and CDP have different bioavailability profiles, e.g. brain penetrance, their CNS activity could not be compared by giving systemic injections of equimolar concentrations of each drug. Instead it was necessary to give both drugs directly into the cerebroventricular system to by pass the blood brain barrier. Animals were anesthetized with sodium pentobarbital (50 mg/kg), implanted with microinjection guide cannulae aimed at the lateral ventricle and allowed to recover for two days before testing. To groups of six animals each were tested with Mox or CDP. Each animals received a injection of drug and 0.9% NaCl vehicle on two separate days. The order of injections was counterbalanced and separated by two days. Both Mox and CDP were prepared in 0.9% NaCl at a concentration of 1 mM. All injections were given in a volume of 2 ul over 10 secs in fully conscious, restrained animals. Sixty min later animals were tested in the plus-maze for a 3 min observation period and scored for behaviors as noted previously.
The elevated plus-maze was developed for screening anxiolytic and anxiogenic drug effects in the rat (Pellow et al., 1985). The method has been validated behaviorally, physiologically, and pharmacologically. The plus-maze consists of two open arms and two enclosed arms. […] Conversely, anxiogenic compounds like yohimbin or amphetamines reduce open arm entries and time spent in the open arms.
Male Wistar rats weighing 250-300 g were group housed in a normal 12:12 light-dark cycle with light on at 0800 hr and provided food and water ad libitum. The plus-maze consisted of two open arms, 50 cm long, 10 cm wide, with walls 40 cm high made of clear Plexiglas. The two closed arms had the same dimensions but included a roof. The Plexiglas for the closed arms was painted black. Each pair of arms was arranged opposite to each other to form the plus-maze. The maze was elevated to a height of 50 cm. Eighteen animals were tested in the plus-maze 90 min following the IP injection of 1.0 μg/kg CLAV, 50 or vehicle control in a volume of ca. 0.3 ml. The order of treatments was counter balanced with at least 48 hrs between injections. At the start of the experiment, the animal was placed at the end of one of the open arms. Over a five min observation period, animals were scored for the latency to enter the closed arm, time spent in the closed arm and the number of open arm entries following the first occupation of the closed arm. The study produced tables of repeated measures. The data between treatments were compared with a two-way, repeated measures ANOVA followed by Bonferroni post hoc tests. […]

The subject of another data set is rats. Briefly: Motor activity in an open field (plus-maze animals). Type of data set: in vivo, rat. The following applies: 1 mM direct injection into the brain, 30 min prior to plus-maze. As for the experimental part:
However, this depression of motor activity disappears following repeated administration of CDP over several days. […] To control for any non-specific effects of Mox and CDP on motor activity following their direct injection into the brain, animals were tested in the open field 30 min prior to testing in the plus (FIG. 18).
Immediately after each of the plus-maze tests reported above in Section II, animals were tested for general motor activity in an “open field.” Animals were placed into a large clean Plexiglas cage (48×32×40 cm) devoid of bedding. This open field was delineated into equal quadrants by tape on the underside of the cage. Animals were scored for motor activity by counting the number of quadrants traversed in 1 min.

A further data set has as its system golden hamsters. Briefly: Seed finding model of anxiety. The conditions noted are these: dose not given. The class given is in vivo, Syrian golden hamsters (Mesocricetus auratus). An excerpt:
Clavulanic acid (CLAV) is structurally similar to the beta-lactam antibiotics. A most robust and simple bioassay for screening beta-lactams for CNS activity is the golden hamster seed finding model of anxiety. Briefly, hamsters are deprived of food overnight. The following day they are exposed to the additional stress of being taken from their home cage and placed in a novel environment for a few minutes. This manipulation stimulates the release of the stress hormone cortisol (FIG. 37). During their absence from the home cage, sunflower seeds are hidden under the bedding in one of the corners. When returned to the home cage, hamsters routinely scramble along the walls for 1-2 min before settling down, locating and eating the seeds. However, animals treated with the benzodiazepine anxiolytic chlordiazepoxide find seeds in less than 10 sec.
Male, Syrian golden hamsters (Mesocricetus auratus) (120-130 g) obtained from Harlan Sprague-Dawley Laboratories (Indianapolis, Ind.) were housed individually in Plexiglas cages (24 cm×24 cm×20 cm), maintained on a reverse light:dark cycle (14L:10D; lights on at 19:00 hr) and provided food and water ad libitum. A range of concentrations of CLAV (saline vehicle, 0.1, 1.0, 10, 100 1,000 ng/kg) were tested in six groups of hamsters (4-8/group)(FIG. 25). All tests were conducted during the dark phase of the circadian cycle under dim red illumination. Prior to testing all animals were fasted for 20-24 hrs. Ninety min after intraperitoneal (IP) injection of drug, animals were taken from their home cage and placed into a holding cage for 2 min. During their absence, six sunflower seeds were buried under the bedding in one corner of their home cage. Animals were placed back into their home cage randomly facing any one of the empty corners and timed for their latency to find the seeds in a five min observation period. Latency times were analyzed with a one-way ANOVA followed by Scheffe's post hoc tests. Assumption of equal variances was tested (Hartley's F-max=2.1 p>0.05)
It was hypothesized that CLAV functioned as an anxiolytic in the seed finding assay by blocking NAALADase activity in the brain. If this notion were true then it would be predicted that drugs known to block NAALADase should also enhance seed finding. To this end, animals were treated with N-acetyl-beta-aspartyl-glutamic acid (beta-NAAG), a competitive inhibitor of NAALADase (Serval et al., 1992) and tested in the seed finding model of anxiety. The study was similar to that outlined in Section I with one notable exception. […] Beta-NAAG (FW 304) was given in a dose of 3 ng in a volume of 1 μl saline ICV. The average adult hamster brain weights ca. 1.2 g of which 22% is extracellular fluid. The estimated beta-NAAG concentration was 11 ng/ml or 36 nM.
Two groups of six animals each were fasted overnight as previously described and tested the following day. One group was treated with beta-NAAG and the other saline vehicle and one hr later timed for latency to find the hidden sunflower seeds. A Student t-test for unpaired data was used for statistical comparisons.

The test system of a further data set is male golden hamsters. Briefly: Resident/intruder paradigm of offensive aggression. The following applies: D vs L isomer, 50 μg/kg IP. Type of data set: in vivo, Syrian golden hamsters (Mesocricetus auratus). As for the experimental part: Male Syrian golden hamsters (Mesocricetus auratus) (140-150 g) obtained from Harlan Sprague-Dawley Laboratories (Indianapolis, Ind.) were housed individually in Plexiglas cages (24 cm×24 cm×20 cm), maintained on a reverse light:dark cycle (14L:10D; lights on at 19:00 hr) and provided food and water ad libitum. Animals were acclimated to the reverse light:dark cycle for at least two weeks before testing. All behavioral tests were conducted during the dark phase of the circadian cycle. All animals were acquired and cared for in accordance with the guidelines published in the Guide for the Care and Use of Laboratory Animals (National Institutes of Health Publications No. 85-23, Revised 1985).
(§1) Agonistic behavior can be classified as either offensive or defensive aggression (Blanchard and Blanchard, 1977; Adams, […]; Albert and Walsh, 1984). Offensive aggression is characterized by the aggressor initiating an attack on an opponent, while defensive aggression lacks active approach. Both types of aggression have their own unique neurobehavioral systems. The stimuli that elicit offensive and defense attack are different, as are the sequences of behaviors that accompany each agonistic response. […] Offensive aggression is easily studied using male golden hamsters tested in a resident/intruder paradigm, an established model of offensive aggression (Ferris and Potegal 1988). Placing an unfamiliar male hamster into the home cage of another male hamster elicits a well-defined sequence of agonistic behaviors from the resident that includes offensive aggression.
Hamsters are nocturnal and as such all behavioral tests were performed during the first four hrs of the dark phase under dim red illumination. The resident was scored for offensive aggression, e.g., latency to bite the intruder, the total number of bites, total contact time with the intruder and flank marking over a 10 min test period (Ferris and Potegal, 1988). Flank marking is a form of olfactory communication in which a hamsters arches its back and rubs pheromone producing flank glands against objects in the environment (Johnson, 1986).
Parametric data, i.e., latencies and contact time, were analyzed with a one-way ANOVA followed by Newman-Keuls post hoc tests. Non parametric data, i.e., number of bites and flank marks, were analyzed with Kruskal-Wallis tests followed by Mann-Whitney U tests to determine differences between groups. Two sample comparisons were analyzed with paired and unpaired t-Tests for parametric data and Wilcoxon and Mann-Whitney Tests for paired and unpaired non-parametric data, respectively.
as §1, with “by an” for “by the”, “an opponent; while,” for “an opponent, while”, “Potegal 1988) in the context of defending the home burrow.” for “Potegal 1988).”
Hamsters are nocturnal and as such all behavioral tests were performed during the first four hrs of the dark phase under dim red illumination. The resident was scored for offensive aggression, e.g., latency to bite the intruder, the total number of bites, total contact time with the intruder and flank marking over a 10 min test period (Ferris and Potegal, 1988). […]

In another data set the test system is bacteria. The conditions noted are these: cited from earlier work.
The conditions of data set [1]: human, in vivo; cited from earlier work.

Turning to `CNC1=Nc2ccc(Cl)cc2C(c2ccccc2)=[N+]([O-])C1` [CDP, Chlordiazepoxide], the “time spent in the closed arm (dark)” value in the data set on Male Wistar rats is reported as “no effect”. In addition, the “latency to enter the closed arm” value in the data set on Male Wistar rats (3 min observation) is recorded as “no effect”. Moreover, in the data set with rats, the “general motor activity in the open field” value is reported as “no significant effect”. In the data set on golden hamsters, the “time to find seeds” value is recorded as “less than 10 sec”.
Regarding `CO[C@@]1(NC(=O)C(C(=O)O)c2ccc(O)cc2)C(=O)N2C(C(=O)O)=C(CSc3nnnn3C)CO[C@@H]21` (some centres unmarked) [D Mox], in the data set with male golden hamsters, the contact time result is reported as “no significant difference”, the flank marking result is “no significant difference” and the “isomer affecting offensive aggressive behavior” value was “active isomer”. In addition, in the data set with male golden hamsters (90 min), the bite latency result was “significantly increased” and the number of bites result is on record as “reduced”. Besides, the antibacterial activity entry with bacteria is “has antibacterial activity”. Also, the “unbound fraction to plasma protein vs L isomer” value in data set [1] is “greater unbound fraction”.
